We go through one molecule from EP0983294B1, “B-RING E[…] SULPHATES” (Wyeth, priority 1997, dated 1998).

The subject of this experiment is Immature rats. In words: In vivo uterotropic activity. The note with it: 0.2 and 2 mg/kg for three days (S.C.). The procedure: Immature rats were treated with doses of 0.2 and 2 mg/kg 5,7,9-estratriene-3β,17β-diol for three days (S.C.) as well as additional groups (n=6) of rats treated with 0.5 µg ethinyl estradiol and vehicle as positive and negative controls, respectively.

On to `C[C@]12CCc3c(ccc4c3CC[C@H](O)C4)[C@@H]1CC[C@@H]2O` [5,7,9-estratriene-3β,17β-diol], for which the uterine weight result is on record as “uterine weight gains at both concentrations”.
